This experiment has as its target HIV-1 RT (Human immunodeficiency virus type 1 group M subtype B, UniProt P04585). The experiment is described as follows: in vitro anti-HIV activity: inhibition of HIV-1 RT. Type of experiment: biochemical. The settings on record: for IC50 / activity against HIV-1 RT (result in words): in vitro; for activity against HIV-1 RT (result in words): same biological target as the IC50 values.

`C=C1CCC[C@H]2[C@](C)(CC(=O)C3=C(OC)C(O)OC3=O)[C@@H](C)CC[C@]12C` (stereo partly drawn) [Compound 6, smenotronic acid] came in with an IC50 of 130 µM.

In the case of `C=C1CCC[C@H]2[C@](CO)(Cc3cc(C(=O)OC)c(O)c(OC)c3O)[C@@H](C)CC[C@]12C` [Compound 1, 19-hydroxy-polyfibrospongol B], the “activity against HIV-1 RT (result in words)” value was “inactive”.

`C=C1CCC[C@H]2[C@](C)(CC3=C(O)C(=O)C=C(OC)C3=O)[C@@H](C)CC[C@]12C` [Compound 3, isosemnonorthoquinone] had an IC50 of 240 µM.

For `C=C1CCC[C@H]2[C@](CO)(Cc3cc(C(=O)OC)cc(OC)c3O)[C@@H](C)CC[C@]12C` [Compound 2, polyfibrospongol B], the “activity against HIV-1 RT (result in words)” value is “inactive”.

`C=C1CCC[C@H]2[C@](C)(CC3=C(O)C(=O)C=C(N)C3=O)[C@@H](C)CC[C@]12C` [Compound 5, smenospongine] had a half-maximal inhibitory concentration (IC50) of 176 µM.

As for `O=C(O)P(=O)(O)O` [PFA, reference compound], where the note is “at 0.05 µM, positive control”, the “inhibition ratio of HIV-1 RT” value is on record as 85%.
